We go through one substance from patent US12691145B2, “Plasma-treated hydrogel compositions and uses thereof” (UNIVERSITAT POLITÉCNICA DE CATALUNYA, priority 2020, dated 2026).

The data set in a line: Detection of RONS in plasma-treated polymer solutions (strips, AR/HRP reagent, Griess reagent). The class given is physicochemical. The settings on record: 200 μL. The text has this:
In the examples presented here, two kinds of atmospheric plasma jet were used: a commercially available cold atmospheric plasma jet kINPen IND (NEOPLAS Tools, Germany), operating with argon and an atmospheric pressure plasma jet (APPJ) using He as plasma gas in a jet design based on a single electrode. Gas flow was regulated between 1 and 2.5 L/min for kINPen and between 1 and 5 L/min for APPJ by using Ar and He Bronkhorst Mass View flow controllers (BRONKHORST, Netherlands), respectively. All plasma treatments of polymeric solutions for RONS quantification were performed on 200 μL of the polymeric solution in 96-well plates, with a distance between the nozzle and the sample surface between 10 and 20 mm. These plasma treatments were done with ungrounded samples. Both grounded and ungrounded samples can be used to obtain the compositions of the present invention, since the skilled person can set the plasma treatment conditions to obtain the desired RONS concentrations.
Determination of NO2^− concentration in plasma-treated polymer solutions was performed using Griess reagent. The Griess reagent used was obtained by dissolving 1% wt/v of sulphanilamide, 0.1% wt/v of N-(1-naphthyl)ethylenediamine dihydrochloride (NEED) and 5% w/v of phosphoric acid in de-ionized water. 200 μL of Griess reagent were added on 200 μL of sample in 96 well-plates. The plates were incubated for 10 min at room temperature protected from the light. The absorbance was measured at λabs=540 nm using a Synergy HTX Hybrid Multi Mode Microplate Reader (BioTek Instruments, Inc., USA). The [NO2^−] in each sample was determined from the absorbance values by using a calibration curve made from NaNO2 dilutions in the corresponding polymer solutions.
The concentration of hydrogen peroxide was determined by reaction of H2O2 with Amplex Red in presence of HRP enzyme that leads to the creation of resorufin, a fluorescent product. Amplex Red/HRP reagent consists in 100 μM of Amplex Red and 0.25 U/mL HRP in DI water. Since the higher concentration of H2O2 able to be processed properly by this reagent is around 10 μM of H2O2, plasma-treated polymer solutions were diluted 200 times previously to the addition of the reagent. In this case, for hydrogen peroxide detection, 50 μL of the Amplex Red/HRP reagent was added to 200 μL of the 200×-diluted polymer solution sample in a 96-well plate and incubated for 30 min at 37° C. Subsequent fluorescence measurements were performed by means of a Synergy HTX Hybrid Multi Mode Microplate Reader (BioTek Instruments, Inc., USA), with fluorescence filters centred at λex=560/20 nm and λem=590/20 nm as excitation and emission wavelengths, respectively. Concentrations of H2O2 in polymer solution generated by plasma treatment were obtained from the fluorescence values using a calibration curve made from 30% hydrogen peroxide solution in the corresponding polymer solutions.
For certain polymer solutions, interferences may be found between the solution and the reactants, invalidating the measure. In such cases, another method was used to determine the concentration of H2O2, […] in the polymer solutions after plasma treatment: QUANTOFIX® test strips, which were analyzed by means of a reflexion photometer (QUANTOFIX® Relax, of Macherey Nagel). The strips consist of plastic strips to which test paper has been sealed. Nitrite strips are also based in Griess reagent. Peroxide strips also use a redox reaction. The range of detection of the test strips used for H2O2, NO3^− and NO2^− were 1-100 mg/L, 10-500 mg/L and 1-80 mg/L, respectively. The plasma-treated polymer solutions were diluted, if necessary, to be within the measuring range.
(Griess reagent forms a coloured azo dye with nitrite.)

Take Water: the H2O2 by setting is: (APPJ, treat. time 180 s) 9.2 mg/L; (APPJ, treat. time 300 s) 16.4 mg/L; (kINPen, treat. time 180 s) 10.3 mg/L; (kINPen, treat. time 300 s) 29.3 mg/L. In addition, the “NO2^−” value (APPJ, treat. time 180 s) is 1.7 mg/L; the “NO2^−” value (APPJ, treat. time 300 s) was 2.7 mg/L; the “NO2^−” value (kINPen, treat. time 180 s) came to 2.6 mg/L; the “NO2^−” value (kINPen, treat. time 300 s) was 2.7 mg/L.
